This is an account of results in article PMC4585737, “Lipoproteins/peptides are sepsis-inducing toxins from bacteria that can be neutralized by synthetic anti-endotoxin peptides” (Scientific Reports, 2015).

Entries after “also recorded” stand apart in the source; their conditions may differ.

Test [1] deals with human MNCs. The following applies: even at [LPS]:[Aspidasept] weight ratios as low as 1:1; cited from earlier work. From the text:
In this section, we first present in vitro data on the production of pro-inflammatory cytokines by human cells in response to LP or LTA from different origin and its neutralization by SALP. Then, we used a mouse model of acute toxemia to characterize the in vivo expression of those cytokines and to study if SALP can protect animals against lethal LP-induced sepsis.

In test [2] the test system is Pam3CSK4. Description: Isothermal titration calorimetry of peptide into Pam3CSK4. Format: binding. As to the method:
Microcalorimetric measurements of peptide binding to selected LP, i.e., Pam3CSK4 and FSL-1 were performed on a MCS isothermal titration calorimeter (Microcal, Freiburg, Germany) at 37 °C, as previously described. The LP containing solutions (0.05 mM, prepared as described above) were dispensed into the microcalorimetric cell (volume 1.5 ml), and the peptide solutions (1 mM) were loaded into the syringe compartment (volume 0.1 ml). After temperature equilibration, the peptide was titrated in 3 μl aliquots every 5 min into the LP-containing cell under constant stirring and the heat of interaction after each injection measured by the MCS instrument was plotted versus time.
(In general: Isothermal titration calorimetry measures the heat released or taken up as one component is titrated into another.)

Test [3] concerns Balb/C mice. Description: Lethal toxemia in galactosamine-sensitized mice. Format: in vivo, mouse. The following applies: 200 μg/mouse peptide i.p. after 4 μg FSL-1 + D-galactosamine 18 mg/mouse; n = 6; up to 4 days; Kaplan-Meier, p < 0.05. As to the method: Seven-week-old female SPF-free Balb/C mice of 20 g of body weight, approximately, were purchased from Harlan Spain (Harlan Interfauna Iberica S.A., Barcelona, Spain) and randomly distributed in experimental groups (at least 4 animals per group except for the determination of lethal dose (n = 3)). Sample size was calculated based on previous results with the same animal model. Animals were housed in individually ventilated cages (5 mice per cage) bedded with hardwood bedding. Mice were provided ad libitum access to feed and water and lighting was adjusted to a 14-hour light/10-hour dark cycle. During the experiments, the condition of the animals was monitored daily every 4 hours and animals displaying persistent motor ataxia and hunched posture were euthanized.
To determine the lethal dose of FSL-1 in mice, the method of Galanos and collaborators[48] was followed with some modifications. Briefly, animals were intraperitoneally inoculated with increasing amounts of FSL-1 (50 ng, 500 ng, 5 μg and 50 μg) supplemented with 18 mg of D-galactosamine in a final volume of 200 μl of pyrogen-free saline. Galactosamine is known to sensitize mice to pro-inflammatory compounds such as LPS, thus making it possible to use lower amounts of the stimulatory drug[46]. The ability of Aspidasept® to protect mice from FSL-1 dependent lethal toxemia was assessed by co-administering FSL-1 (4 μg/mouse) with D-galactosamine (18 mg/mouse) intraperitoneally.
Results were globally analyzed by means of a Kaplan-Meier survival analysis (SPSS 15.0). When the survival plots were parallel, the data were compared by the log-rank test, whereas the Breslow-Gehan-Wilcoxon test was applied when the plots intersected.

Test [4] has as its system human macrophages. Description: TNFα production in human macrophages stimulated by LPS or LP, and its inhibition by SALP. The test is classed as cell-based. The protocol: In some stimulation experiments, also macrophages were used. Briefly, MNC were isolated from peripheral blood from healthy donors by the Hypaque-Ficoll gradient method. To differentiate the monocytes to macrophages cells were cultivated in Teflon bags in the presence of 2 ng/ml M-CSF in RPMI 1640 medium (endotoxin <0.01 EU/ml; Biochrom, Berlin, Germany) containing 100 U/ml penicillin, 100 μg/ml streptomycin, 2 mM L-glutamine and 4% heat-inactivated human serum type AB at 37 °C and 6% CO2. On day 6, cells were washed with PBS, detached by Trypsin-EDTA treatment and seeded at 1 × 10^6 cells/ml in complete medium in 96-well tissue culture dishes (Nunc, Wiesbaden, Germany). After stimulation of cells with various LP for 4 h, cell-free supernatants of duplicate samples were collected, pooled and stored at −20 °C until determination of cytokine content. Data shown are representative of at least three independent experiments.
LP preparations were pre-warmed for 30 min at 37 °C, and added to the cultures at 20 μl per well. In inhibition experiments, different SALP were added directly after LPS/LP/LTA administration. […]

Regarding “GCKKYRRFRWKFKGKFWFWG [Aspidasept®, synthetic anti-LPS peptide (SALP), 20′mer, anti-septic therapeutic drug candidate]”, in test [1], the “inhibition of LPS-induced cytokine expression in human MNCs” value is “efficiently inhibits”. In test [2] (LP 0.05 mM, peptide 1 mM titrated in 3 μl portions every 5 min, 37 °C), the “ITC: Pam3CSK4:peptide interaction” value is given as “weak exothermic reaction; also recorded: no clear thermal reaction”. Further, the “affinity of the peptide towards the LP” value in test [2] (Pam3CSK4, concluded from ITC) is reported as “poor affinity”. In addition, the “survival of mice challenged with FSL-1” value in test [3] is “significant survival benefit”. Also, in test [4] (stimulus LP SitC 1000 and 100 ng/ml, 10:1 excess of peptide, three independent measurements), the “inhibition of TNFα production” value is “strong inhibition”. Also, in test [4] (stimulus LP SitC, all tested concentrations, [LP]:[Pep] 1:10 and 1:100 weight%), the “inhibition of LP-dependent TNFα secretion” value was “almost totally abrogated”.
